According to US11564923B2, “Compounds and pharmaceutical compositions thereof for the treatment of inflammatory disorders” (Galapagos NV, priority 2017, dated 2023):

Tests used:
[1] = target: T1, Recombinant human JAK1 (catalytic domain, amino acids 866-1154) (Homo sapiens, UniProt P23458); assay: JAK1 inhibition assay; assay type: biochemical; conditions: read-out: JAK1 potency IC50
T1 construct: catalytic domain, amino acids 866-1154
Protocol: (§1) After 60 min at room temperature, reactions are stopped by adding 20 μL/well of detection mixture (1× detection buffer (Perkin Elmer, catalog number CR97-100), 0.5 nM Europium-anti-phosphotyrosine (PT66) (Perkin Elmer, catalog number AD0068/AD0069), 10 mM EDTA). […] Kinase activity is calculated by subtracting the ratio obtained in the presence of a positive control inhibitor (1 μM staurosporine) from the ratio obtained in the presence of vehicle. The ability of a test compound to inhibit this activity (or percentage inhibition) is determined as:
(§2) [formula] wherein Fluorescent ratio test compound=ratio RFU665/RFU615*1000 determined for sample with test compound present Fluorescent ratio control=ratio RFU665/RFU615*1000 determined for sample with positive control inhibitor Fluorescent ratio vehicle=ratio RFU665/RFU615*1000 determined in the presence of vehicle
(§3) Dose dilution series were prepared for the compounds enabling the testing of dose-response effects in the JAK1 assay and the calculation of the IC50 for the compound. Each compound is routinely tested at concentration of 20 μM followed by a 1/5 serial dilution, 10 points in a final concentration of 1% DMSO. […] The data are expressed as the average IC50 from the assays.

[2] = target: T2, Recombinant human JAK2 (catalytic domain, amino acids 808-1132) (Homo sapiens, UniProt O60674); assay: JAK2 inhibition assay; assay type: biochemical; conditions: read-out: JAK2 potency IC50; note: 0.7 µM ATP
T2 construct: catalytic domain, amino acids 808-1132
T2 sequence (O60674 808-1132): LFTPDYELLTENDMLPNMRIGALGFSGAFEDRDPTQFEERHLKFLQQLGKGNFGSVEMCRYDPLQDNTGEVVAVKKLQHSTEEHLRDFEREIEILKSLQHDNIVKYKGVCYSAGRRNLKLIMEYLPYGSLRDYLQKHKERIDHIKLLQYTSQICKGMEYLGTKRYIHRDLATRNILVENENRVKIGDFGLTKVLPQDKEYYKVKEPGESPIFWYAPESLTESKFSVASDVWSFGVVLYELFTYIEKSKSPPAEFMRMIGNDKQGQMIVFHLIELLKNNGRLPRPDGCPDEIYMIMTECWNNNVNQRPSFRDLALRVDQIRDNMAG
Protocol: as §1, with “CR97-100) with” for “CR97-100),”, “AD0068/AD0069) and” for “AD0068/AD0069),”
as §2
as §3, with “are” for “were”, “compound” for “the compounds”, “JAK2” for “JAK1”

[3] = target: Recombinant human JAK3 catalytic domain (amino acids 781-1124) (Homo sapiens, UniProt P52333); assay: JAK3 inhibition assay; assay type: biochemical
Sequence of Recombinant human JAK3 catalytic domain (amino acids 781-1124) (P52333 781-1124): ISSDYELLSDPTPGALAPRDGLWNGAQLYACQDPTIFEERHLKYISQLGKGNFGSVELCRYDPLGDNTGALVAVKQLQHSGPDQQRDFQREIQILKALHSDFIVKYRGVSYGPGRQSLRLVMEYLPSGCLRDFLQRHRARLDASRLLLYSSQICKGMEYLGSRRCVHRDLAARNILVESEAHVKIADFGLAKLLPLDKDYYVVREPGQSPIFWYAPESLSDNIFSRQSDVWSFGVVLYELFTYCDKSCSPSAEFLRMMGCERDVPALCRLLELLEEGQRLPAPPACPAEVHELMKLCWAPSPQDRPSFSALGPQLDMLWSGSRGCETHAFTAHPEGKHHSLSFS
Protocol: After 45 min at 30° C., reactions are stopped by adding 25 μL/well of 150 mM phosphoric acid. […] Plates are washed 6 times with 300 μL per well of a 75 mM phosphoric acid solution and the bottom of the plates is sealed. […] Kinase activity is calculated by subtracting counts per min (cpm) obtained in the presence of a positive control inhibitor (10 μM staurosporine) from cpm obtained in the presence of vehicle. The ability of a test compound to inhibit this activity (or percentage inhibition) is determined as: […]
cpm test compound=cpm determined for sample with test compound present cpm control=cpm determined for sample with positive control inhibitor cpm vehicle=cpm determined in the presence of vehicle
Dose dilution series were prepared for the compounds enabling the testing of dose-response effects in the JAK3 assay and the calculation of the IC50 for each compound. Each compound is routinely tested at concentration of 20 μM followed by a 1/5 serial dilution, 10 points in a final concentration of 1% DMSO.

[4] = target: T3, Recombinant human TYK2 catalytic domain (amino acids 871-1187) (Homo sapiens, UniProt P29597); assay: TYK2 radioactive assay polyGT substrate; assay type: biochemical; note: 0.1 µM ATP
T3 construct: catalytic domain (amino acids 871-1187)
T3 sequence (P29597 871-1187): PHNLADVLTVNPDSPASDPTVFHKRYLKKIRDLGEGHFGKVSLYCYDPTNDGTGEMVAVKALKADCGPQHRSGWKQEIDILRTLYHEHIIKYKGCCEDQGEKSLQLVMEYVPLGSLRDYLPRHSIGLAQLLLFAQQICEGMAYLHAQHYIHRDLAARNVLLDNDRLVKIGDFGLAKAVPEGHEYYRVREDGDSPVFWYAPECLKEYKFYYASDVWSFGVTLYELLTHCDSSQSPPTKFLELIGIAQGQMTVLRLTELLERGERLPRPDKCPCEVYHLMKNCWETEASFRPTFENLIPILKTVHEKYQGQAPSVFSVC
Procedure, shortened: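 Reaction at 30° C. for 120 min, ended with 150 mM phosphoric acid, washed, counted; percent inhibition scaled between vehicle and 10 μM staurosporine cpm.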

[5] = system: IFNα activation of STAT1 in PBMC; assay: IFNα activation of STAT1 in PBMC; assay type: cell-based; conditions: Homo sapiens; IFNα activation of STAT1 in PBMC; average IC50; read-out: IFNα signaling inhibitory potency IC50
Procedure, shortened: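 Human PBMC, with red cells lysed by NH4Cl, were pre-treated with compound for 30 min at 37 °C and 5% CO2. They were then stimulated for 30 min with recombinant human IFNα at 5 ng/mL final.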

T1 sequence (P23458 866-1154): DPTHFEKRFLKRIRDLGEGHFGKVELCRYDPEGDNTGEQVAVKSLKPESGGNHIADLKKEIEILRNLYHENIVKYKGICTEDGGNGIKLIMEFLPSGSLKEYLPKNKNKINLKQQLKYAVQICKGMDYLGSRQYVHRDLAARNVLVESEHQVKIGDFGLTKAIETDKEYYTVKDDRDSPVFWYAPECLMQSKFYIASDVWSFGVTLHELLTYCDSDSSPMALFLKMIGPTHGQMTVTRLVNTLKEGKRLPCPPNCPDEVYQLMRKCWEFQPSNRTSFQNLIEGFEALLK

Row | Compound | IC50 [1] | IC50 [2] | IC50 [3] | IC50 [4] | IC50 [5]
1 | Cc1cc(C#N)ncc1Oc1cc(Nc2ccc(N(C)C)cn2)c2ncn(C)c2n1 [Compound 185, 5-[7-[[5-(dimethylamino)-2-pyridyl]amino]-3-methyl-imidazo[4,5-b]pyridin-5-yl]oxy-4-methyl-pyridine-2-carbonitrile] | 93.6 nM | 41.4 nM | 871 nM | 17 nM | –
2 | CC(C)[C@@H](Nc1cc(Nc2ccc(C(=O)N(C)C)cn2)c2ncn(C)c2n1)C(F)(F)F [Compound 97, N,N-dimethyl-6-[[3-methyl-5-[[(1R)-2-methyl-1-(trifluoromethyl)propyl]amino]imidazo[4,5-b]pyridin-7-yl]amino]pyridine-3-carboxamide] | 21.8 nM | 6.29 nM | 36.4 nM | 3.08 nM | –
3 | Cc1cc(C#N)ncc1Oc1cc(Nc2cc(NCC3COCCO3)ncn2)c2ncn(C)c2n1 (stereo not drawn) [Compound 35, 5-(7-{6-[([1,4]Dioxan-2-ylmethyl)-amino]-pyrimidin-4-ylamino}-3-methyl-3H-imidazo[4,5-b]pyridin-5-yloxy)-4-methyl-pyridine-2-carbonitrile] | 52.4 nM | 20.4 nM | 452 nM | 2.3 nM | –
4 | CCNC(=O)c1ccc(Nc2cc(Oc3cnc(C#N)cc3C)nc3c2ncn3C)nc1C [Compound 78, 6-[[5-[(6-cyano-4-methyl-3-pyridyl)oxy]-3-methyl-imidazo[4,5-b]pyridin-7-yl]amino]-N-ethyl-2-methyl-pyridine-3-carboxamide] | 60.2 nM | 31.6 nM | 737 nM | 9.69 nM | –
5 | C[C@H](C1CC1)N(C)c1cc(Nc2cc(N)ncn2)c2ncn(C)c2n1 [Compound 16, N7-(6-aminopyrimidin-4-yl)-N5-[(1R)-1-cyclopropylethyl]-N5,3-dimethyl-imidazo[4,5-b]pyridine-5,7-diamine] | 71 nM | 25 nM | 221 nM | 13.4 nM | –
6 | CCNC(=O)c1cnc(Nc2cc(Oc3cnc(C#N)cc3C)nc3c2ncn3C)cc1C [Compound 64, 6-[[5-[(6-cyano-4-methyl-3-pyridyl)oxy]-3-methyl-imidazo[4,5-b]pyridin-7-yl]amino]-N-ethyl-4-methyl-pyridine-3-carboxamide] | 343 nM | 214 nM | 3220 nM | 51.6 nM | –
7 | Cc1cc(C#N)ncc1N(CCCO)c1cc(Nc2cc(N)ncn2)c2ncn(C)c2n1 [Compound 5, 5-[[7-(6-Amino-pyrimidin-4-ylamino)-3-methyl-3H-imidazo[4,5-b]pyridin-5-yl]-(3-hydroxy-propyl)-amino]-4-methyl-pyridine-2-carbonitrile] | 23.4 nM | 6.96 nM | 329 nM | 0.95 nM | –
8 | Cc1cc(C#N)ncc1Oc1cc(Nc2ccc(C(=O)NCCN(C)C)cn2)c2ncn(C)c2n1 [Compound 99, 6-[[5-[(6-cyano-4-methyl-3-pyridyl)oxy]-3-methyl-imidazo[4,5-b]pyridin-7-yl]amino]-N-(2-dimethylaminoethyl)pyridine-3-carboxamide] | 111 nM | 51.1 nM | 916 nM | 17.8 nM | –
9 | COCCCNC(=O)c1ccc(Nc2cc(Oc3cnc(C#N)cc3C)nc3c2ncn3C)nc1 [Compound 100, 6-[[5-[(6-cyano-4-methyl-3-pyridyl)oxy]-3-methyl-imidazo[4,5-b]pyridin-7-yl]amino]-N-(3-methoxypropyl)pyridine-3-carboxamide] | 63.5 nM | 39.4 nM | 912 nM | 8.06 nM | –
10 | Cc1cc(C#N)ncc1Oc1cc(Nc2ccc(C(N(C)C)C(F)(F)F)cn2)c2ncn(C)c2n1 (stereo not drawn) [Compound 79] | 18.5 nM | 5.58 nM | 573 nM | 3.57 nM | –
11 | Cc1cc(C#N)ncc1Oc1cc(Nc2ccc(N3CCC(N(C)C)C3)cn2)c2ncn(C)c2n1 (stereo not drawn) [Compound 182, 5-[7-[[5-[3-(dimethylamino)pyrrolidin-1-yl]-2-pyridyl]amino]-3-methyl-imidazo[4,5-b]pyridin-5-yl]oxy-4-methyl-pyridine-2-carbonitrile] | 165 nM | 76.4 nM | 721 nM | 17.2 nM | –
12 | Cc1cc(C#N)ncc1Oc1cc(Nc2ccc(C(=O)N3CC(C(C)(C)O)C3)nn2)c2ncn(C)c2n1 [Compound 111, 5-[7-[[6-[3-(1-hydroxy-1-methyl-ethyl)azetidine-1-carbonyl]pyridazin-3-yl]amino]-3-methyl-imidazo[4,5-b]pyridin-5-yl]oxy-4-methyl-pyridine-2-carbonitrile] | 310 nM | 29.7 nM | 1050 nM | 5.53 nM | 123 nM
13 | Cc1cc(C#N)ncc1Nc1cc(Nc2ccc(C(=O)N(C)C)nn2)c2ncn(C)c2n1 [Compound 76, 6-[[5-[(6-cyano-4-methyl-3-pyridyl)amino]-3-methyl-imidazo[4,5-b]pyridin-7-yl]amino]-N,N-dimethyl-pyridazine-3-carboxamide] | 200 nM | 19.9 nM | 579 nM | 6.71 nM | –
14 | Cc1cc(C#N)ncc1Oc1cc(Nc2ccc(C(=O)NC3CCC(O)C3)cn2)c2ncn(C)c2n1 (racemic) [Compound 139, 6-[[5-(6-cyano-4-methylpyridin-3-yl)oxy-3-methylimidazo[4,5-b]pyridin-7-yl]amino]-N-[rac-(1R,3R)-3-hydroxycyclopentyl]pyridine-3-carboxamide] | 33.8 nM | 23.7 nM | 673 nM | 5.64 nM | –
15 | COCCN(C)c1ccc(Nc2cc(Oc3cnc(C#N)cc3C)nc3c2ncn3C)nc1 [Compound 183, 5-[7-[[5-[2-methoxyethyl(methyl)amino]-2-pyridyl]amino]-3-methyl-imidazo[4,5-b]pyridin-5-yl]oxy-4-methyl-pyridine-2-carbonitrile] | 95.4 nM | 41.2 nM | 561 nM | 12.9 nM | –
16 | Cc1cc(C#N)ncc1Oc1cc(Nc2cc(NCCCO)ncn2)c2ncn(C)c2n1 [Compound 34, 5-{7-[6-(3-Hydroxy-propylamino)-pyrimidin-4-ylamino]-3-methyl-3H-imidazo[4,5-b]pyridin-5-yloxy}-4-methyl-pyridine-2-carbonitrile] | 101 nM | 23.4 nM | 1110 nM | 5.49 nM | –
17 | COC(C)CCNc1cc(Nc2cc(Oc3cnc(C#N)cc3C)nc3c2ncn3C)ncn1 (stereo not drawn) [Compound 37, 5-{7-[6-(3-Methoxy-butylamino)-pyrimidin-4-ylamino]-3-methyl-3H-imidazo[4,5-b]pyridin-5-yloxy}-4-methyl-pyridine-2-carbonitrile] | 84.3 nM | 20.1 nM | 439 nM | 3.62 nM | –
